Consider one compound from BindingDB's records for doi:10.1021/jm00403a015 (Washington State University, 1988).

For the assay, the target named is Cytidine deaminase (Mus musculus) (UniProt P56389). Briefly: Inhibition of cytidine deaminase enzyme obtained from mouse kidney.
Cytidine deaminase (Mus musculus), sequence (P56389 whole entry, looked up): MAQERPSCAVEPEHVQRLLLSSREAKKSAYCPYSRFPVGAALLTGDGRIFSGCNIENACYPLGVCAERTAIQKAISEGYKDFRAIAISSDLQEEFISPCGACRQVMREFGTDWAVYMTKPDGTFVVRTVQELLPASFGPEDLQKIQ

A word on the Ki: it is the equilibrium dissociation constant of an inhibitor or competing ligand from its target. Read a high Ki as a looser hold on the target. On to `[O-][S+]1C=CN(C2O[C@H](CO)[C@@H](O)[C@H]2O)C(O)=C1` (stereo partly specified), for which the affinity, expressed as Ki, was 330 µM.
